Measurements from patent publication US9266904B2, “6-bridged heteroaryldihydropyrimidines for the treatment and prophylaxis of hepatitis B virus infection” (priority 2013, dated 2016).
Values after ≈ are worked out from the molar mass of the structure shown. Like-named read-outs stand apart in the source and are kept apart here.

Key:
[1] = test system: HBV replication in HepG2.2.15 cells; assay: Anti-HBV activity in vitro in HepG2.2.15 cells (extracellular HBV DNA by qPCR); format: cell-based; conditions: Hepatitis B virus
Method in brief: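 EC50 is derived from qPCR of extracellular viral DNA in culture supernatant after 5-day compound exposure. Cells (HepG2.2.15, stably carrying the HBV genome) were plated and incubated overnight at 37 °C before half-log dilution series were added at 0.5% final DMSO.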

[2] = Human microsomal clearance assay; format: in vitro ADME
Experimental: Microsomes were preincubated with test compound for 10 minutes at 37° C. in 100 mM phosphate buffer with pH 7.4. The reactions were initiated by adding NADPH regenerating system to give a final incubation volume of 400 μL. The incubations finally contained 1 μM test compound, 0.5 mg/mL liver microsomal protein, 3.0 mM glucose 6-phosphate, 1.0 mM NADP, 3.0 mM MgCl2 and 0.05 mg/mL glucose 6-phosphate dehydrogenase in 100 mM phosphate buffer with pH 7.4. After incubation times of 0, 3, 6, 9, 15 and 30 minutes, 50 μL, incubation was transferred to the quench solution containing the internal standard which was 2 μM tolbutamide. After precipitation and centrifugation, test compound concentrations in the samples were determined by LC-MS/MS. Controls of no NADPH regenerating system at zero and 30 minutes were also prepared and analyzed.

[3] = Lyophilisation solubility assay (Lysa); format: physicochemical; conditions: thermodynamic from solid
Experimental: The aqueous solubility is an important physico-chemical property that plays a significant role in various physical and biological processes. It is desirable to have good solubility which enables good permeability and gastric and intestinal absorption, linear dose proportionality, less PK variability, and easy formulation for PD/PK studies. […] Lyophilisation solubility assay (Lysa) is a well adopted high throughput assay to measure compound solubility in industry.
Samples are prepared in duplicate from 10 mM DMSO stock solutions. After evaporation of DMSO with a centrifugal vacuum evaporator, the residue is solved in 0.05 M phosphate buffer (pH 6.5), stirred for one hour and then shook for two hours. After one night, the solution is filtered using a microtiter filter plate and then the filtrate and its 1/10 dilution are then analyzed by direct UV measurement or by HPLC-UV. In addition a four-point calibration curve is prepared from the 10 mM stock solutions and used for the solubility determination of the compounds. The results are in μg/ml. In case the percentage of sample measured in solution after evaporation divided by the calculated maximum of sample amount is bigger than 80% the solubility is reported as bigger than this value.

[4] = HepG2.2.15, Anti-HBV activity in HepG2.2.15 cells, read-out: EC50
[5] = aqueous buffer, 0.05 M phosphate buffer (pH 6.5), reported as bigger than the value if more than 80% of the sample is in solution, read-out: Lysa

In the case of `CCOC(=O)C1=C(CN2C3COCC2C(OCC(=O)O)C3)NC(c2nccs2)=N[C@H]1c1ccc(F)cc1Br` (mixture of isomers) [Example 50, 2-[[8-[[(4R)-4-(2-bromo-4-fluoro-phenyl)-5-ethoxycarbonyl-2-thiazol-2-yl-1,4-dihydropyrimidin-6-yl]methyl]-3-oxa-8-azabicyclo[3.2.1]octan-6-yl]oxy]acetic acid], the EC50 [1, 4] is reported as 24.1 nM, the CLh ([2]; human, 1 μM, pH 7.4) is reported as 1.4 mL/min/kg and the solubility thermodynamic ([3]; pH 6.5, aqueous buffer) is reported as > 724 µg/mL.
For `COC(=O)C1=C(CN2C3COCC2CC(C(=O)O)C3)NC(c2nccs2)=N[C@H]1c1ccc(F)cc1Cl` (stereo partly drawn) [Example 1, 9-[[(4R)-4-(2-chloro-4-fluoro-phenyl)-5-methoxycarbonyl-2-thiazol-2-yl-1,4-dihydropyrimidin-6-yl]methyl]-3-oxa-9-azabicyclo[3.3.1]nonane-7-carboxylic acid], the EC50 [1, 4] was 59 nM, the CLh ([2]; human, 1 μM, pH 7.4) was 3.0 mL/min/kg and the solubility thermodynamic ([3]; pH 6.5, aqueous buffer) was 540 µg/mL (≈ 1010 µM).
Work on `COC(=O)C1=C(CN2C3COCC2CC(C(=O)O)C3)NC(c2nc(C)cs2)=N[C@H]1c1ccc(F)cc1Cl` (stereo partly drawn) [Example 2, 9-[(R)-6-(2-Chloro-4-fluoro-phenyl)-5-methoxycarbonyl-2-(4-methyl-thiazol-2-yl)-3,6-dihydro-pyrimidin-4-ylmethyl]-3-oxa-9-aza-bicyclo[3.3.1]nonane-7-carboxylic acid] yielded an EC50 [1, 4] of 114 nM, a CLh ([2]; human, 1 μM, pH 7.4) of 3.2 mL/min/kg and a solubility thermodynamic ([3]; pH 6.5, aqueous buffer) of 450 µg/mL (≈ 820 µM).
For `COC(=O)C1=C(CN2C3COCC2CC(C(=O)O)C3)NC(c2nccs2)=NC1c1ccc(F)c(F)c1` (stereo not drawn) [Example 3, 9-[6-(3,4-Difluoro-phenyl)-5-methoxycarbonyl-2-thiazol-2-yl-3,6-dihydro-pyrimidin-4-ylmethyl]-3-oxa-9-aza-bicyclo[3.3.1]nonane-7-carboxylic acid], the EC50 [1, 4] was 400 nM, the CLh ([2]; human, 1 μM, pH 7.4) was 0 mL/min/kg and the solubility thermodynamic ([3]; pH 6.5, aqueous buffer) was > 678 µg/mL.
In the case of `COC(=O)C1=C(CN2C3COCC2CC(C(=O)O)C3)NC(c2nccs2)=N[C@H]1c1ccc(F)cc1Br` (stereo partly drawn) [Example 5, 9-[(R)-6-(2-Bromo-4-fluoro-phenyl)-5-methoxycarbonyl-2-thiazol-2-yl-3,6-dihydro-pyrimidin-4-ylmethyl]-3-oxa-9-aza-bicyclo[3.3.1]nonane-7-carboxylic acid], the EC50 [1, 4] is reported as 21 nM, the CLh ([2]; human, 1 μM, pH 7.4) is reported as 0 mL/min/kg and the solubility thermodynamic ([3]; pH 6.5, aqueous buffer) is reported as > 660 µg/mL.
In the case of `COC(=O)C1=C(CN2C3COCC2C(C(=O)O)C3)NC(c2nccs2)=N[C@H]1c1ccc(F)cc1Cl` (stereo partly drawn) [Example 6, 8-[(R)-6-(2-Chloro-4-fluoro-phenyl)-5-methoxycarbonyl-2-thiazol-2-yl-3,6-dihydro-pyrimidin-4-ylmethyl]-3-oxa-8-aza-bicyclo[3.2.1]octane-6-carboxylic acid], the EC50 [1, 4] is reported as 32 nM, the CLh ([2]; human, 1 μM, pH 7.4) is reported as 0.5 mL/min/kg and the solubility thermodynamic ([3]; pH 6.5, aqueous buffer) is reported as > 665 µg/mL.
Molecule `COC(=O)C1=C(CN2C3COCC2CN(C(C)C)C3)NC(c2nccs2)=N[C@H]1c1ccc(F)cc1Cl` [Example 13, (R)-4-(2-Chloro-4-fluoro-phenyl)-6-(7-isopropyl-3-oxa-7,9-diaza-bicyclo[3.3.1]non-9-ylmethyl)-2-thiazol-2-yl-1,4-dihydro-pyrimidine-5-carboxylic acid methyl ester] has an EC50 [1, 4] of 270 nM and a solubility thermodynamic ([3]; pH 6.5, aqueous buffer) of 313 µg/mL (≈ 586 µM).
With `COC(=O)C1=C(CN2C3COCC2CN(C(C)=O)C3)NC(c2nccs2)=N[C@H]1c1ccc(F)cc1Cl` [Example 15, (R)-6-(7-Acetyl-3-oxa-7,9-diaza-bicyclo[3.3.1]non-9-ylmethyl)-4-(2-chloro-4-fluoro-phenyl)-2-thiazol-2-yl-1,4-dihydro-pyrimidine-5-carboxylic acid methyl ester] the EC50 [1, 4] was 43 nM and the solubility thermodynamic ([3]; pH 6.5, aqueous buffer) was 233 µg/mL (≈ 436 µM).
For `CCOC(=O)C1=C(CN2C3COCC2CC(CC(=O)O)C3)NC(c2nccs2)=N[C@H]1c1ccc(F)c(F)c1` (stereo partly drawn) [Example 29, (S)-6-(7-Carboxymethyl-3-oxa-9-aza-bicyclo[3.3.1]non-9-ylmethyl)-4-(3,4-difluoro-phenyl)-2-thiazol-2-yl-1,4-dihydro-pyrimidine-5-carboxylic acid ethyl ester], the EC50 [1, 4] was 34.3 nM, the CLh ([2]; human, 1 μM, pH 7.4) was 1.7 mL/min/kg and the solubility thermodynamic ([3]; pH 6.5, aqueous buffer) was > 600 µg/mL.
Molecule `COC(=O)C1=C(CN2C3CNC(=O)CC2COC3)NC(c2nccs2)=N[C@H]1c1ccc(F)cc1Cl` (stereo partly drawn) [Example 34, (R)-4-(2-Chloro-4-fluoro-phenyl)-6-(4-oxo-8-oxa-3,10-diaza-bicyclo[4.3.1]dec-10-ylmethyl)-2-thiazol-2-yl-1,4-dihydro-pyrimidine-5-carboxylic acid methyl ester] has an EC50 [1, 4] of 42 nM and a solubility thermodynamic ([3]; pH 6.5, aqueous buffer) of 263 µg/mL (≈ 506 µM).
In the case of `COC(=O)C1=C(CN2CC3(F)CC2(C(=O)O)C3)NC(c2nccs2)=N[C@H]1c1ccc(F)cc1Cl` [Example 40, 2-[(R)-6-(2-Chloro-4-fluoro-phenyl)-5-methoxycarbonyl-2-thiazol-2-yl-3,6-dihydro-pyrimidin-4-ylmethyl]-4-fluoro-2-aza-bicyclo[2.1.1]hexane-1-carboxylic acid], the EC50 [1, 4] is reported as 32 nM, the CLh ([2]; human microsomal clearance) is reported as 1.4 mL/min/kg and the solubility thermodynamic [3, 5] is reported as > 634 µg/mL.
In the case of `COC(=O)C1=C(CN2CC3CC2CN3C(C)=O)NC(c2nccs2)=N[C@H]1c1ccc(F)cc1Cl` (stereo partly drawn) [Example 41, (R)-6-(5-Acetyl-2,5-diaza-bicyclo[2.2.1]hept-2-ylmethyl)-4-(2-chloro-4-fluoro-phenyl)-2-thiazol-2-yl-1,4-dihydro-pyrimidine-5-carboxylic acid methyl ester], the EC50 ([1]; HepG2.2.15) is reported as 133 nM and the solubility thermodynamic [3, 5] is reported as > 552 µg/mL.
With `COC(=O)C1=C(CN2C3CSCC2CC(CC(=O)O)C3)NC(c2nccs2)=N[C@H]1c1ccc(F)cc1Cl` (stereo partly drawn) [Example 42, 6-(7-Carboxymethyl-3-thia-9-aza-bicyclo[3.3.1]non-9-ylmethyl)-4-(2-chloro-4-fluoro-phenyl)-2-thiazol-2-yl-1,4-dihydro-pyrimidine-5-carboxylic acid methyl ester] the EC50 [1, 4] was 54.5 nM and the solubility thermodynamic ([3]; pH 6.5, aqueous buffer) was 188 µg/mL (≈ 333 µM).
For `COC(=O)C1=C(CN2[C@@H]3CC[C@H]2C[C@@H](O)C3)NC(c2nccs2)=N[C@H]1c1ccc(F)cc1Cl` [Example 44, (R)-4-(2-Chloro-4-fluoro-phenyl)-6-((1R,3R,5S)-3-hydroxy-8-aza-bicyclo[3.2.1]oct-8-ylmethyl)-2-thiazol-2-yl-1,4-dihydro-pyrimidine-5-carboxylic acid methyl ester], the CLh ([2]; human, 1 μM, pH 7.4) was 7.1 mL/min/kg and the solubility thermodynamic ([3]; pH 6.5, aqueous buffer) was > 623 µg/mL.
With `COC(=O)C1=C(CN2[C@@H]3COC[C@H]2CC(OCC(=O)O)C3)NC(c2nccs2)=N[C@H]1c1ccc(F)cc1Cl` (stereo partly drawn) [Example 46, 2-[[(1R,5S)-9-[[(4R)-4-(2-chloro-4-fluoro-phenyl)-5-methoxycarbonyl-2-thiazol-2-yl-1,4-dihydropyrimidin-6-yl]methyl]-3-oxa-9-azabicyclo[3.3.1]nonan-7-yl]oxy]acetic acid] the EC50 [1, 4] was 86.6 nM, the CLh ([2]; human, 1 μM, pH 7.4) was 4.0 mL/min/kg and the solubility thermodynamic ([3]; pH 6.5, aqueous buffer) was > 685 µg/mL.
Work on `COC(=O)C1=C(CN2C3COCC2CN(C(=O)CO)C3)NC(c2nccs2)=N[C@H]1c1ccc(F)cc1Br` [Example 53, Methyl (4R)-4-(2-bromo-4-fluoro-phenyl)-6-[[7-(2-hydroxyacetyl)-3-oxa-7,9-diazabicyclo[3.3.1]nonan-9-yl]methyl]-2-thiazol-2-yl-1,4-dihydropyrimidine-5-carboxylate] yielded an EC50 [1, 4] of 16.8 nM, a CLh ([2]; human, 1 μM, pH 7.4) of 7.0 mL/min/kg and a solubility thermodynamic ([3]; pH 6.5, aqueous buffer) of 163 µg/mL (≈ 274 µM).
